This passage reports Normal boiling temperature results from the NIST ThermoML archive (doi:10.1016/j.fluid.2012.02.005).

SMILES strings stand for the structures. Numbers after ± are expanded uncertainties.

The conditions of this data set: Liquid; Ebulliometric method (Recirculating still).
`Cc1ccccc1` [toluene]: the Normal boiling temperature was 110.54 ± 0.2 °C. On to `CCCCCCC` [heptane], for which the Normal boiling temperature is 98.49 ± 0.2 °C. For `CC(C)=C(C)C` [2,3-dimethyl-2-butene], the Normal boiling temperature was found to be 73.00 ± 0.2 °C. As for `CCC(C)C` [2-methylbutane], the figure is 28.00 ± 0.21 °C. To `Cc1ccsc1` [3-methylthiophene] belongs 115.20 ± 0.2 °C.
